Publication PMC6409085, “Three odorant-binding proteins are involved in the behavioral response of Sogatella furcifera to rice plant volatiles” (PeerJ, 2019)
Several values for one entry are separate records, joined by “and”; a condition that tells them apart may be missing. Equal values may be shown once.

Experiments:
[1] = target: SfurOBP1 (Sogatella furcifera, UniProt V5T8N5); assay: biochemical; format: binding; details: for Fluorescence competitive binding assay, fluorescence intensity: OBP1, three replicate columns
Sequence of SfurOBP1 (V5T8N5 entry or part of it): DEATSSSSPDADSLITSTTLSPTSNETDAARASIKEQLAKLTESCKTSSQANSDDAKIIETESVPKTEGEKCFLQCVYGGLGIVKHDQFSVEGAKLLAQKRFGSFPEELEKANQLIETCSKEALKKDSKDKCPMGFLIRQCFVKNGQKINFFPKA
Procedure, shortened: (§1)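 Fluorescence competitive binding with 1-NPN as reporter: 2.0 µM protein and 2.0 µM 1-NPN in 50 mM Tris-HCl pH 7.4, odorant added at 2–20 µM final. Excitation 337 nm, emission 390–490 nm read 2 min after addition, triplicates. Ki = IC50/(1 + [1-NPN]/K1-NPN).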

[2] = target: SfurOBP11 (Sogatella furcifera, UniProt V5T6E3); assay: biochemical; format: binding
Sequence of SfurOBP11 (V5T6E3 entry or part of it): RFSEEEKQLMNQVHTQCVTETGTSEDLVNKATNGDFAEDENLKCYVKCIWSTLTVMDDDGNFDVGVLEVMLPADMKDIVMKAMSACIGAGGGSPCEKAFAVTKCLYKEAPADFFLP
Procedure, shortened: as §1

[3] = target: SfurOBP2 (Sogatella furcifera, UniProt V5T759); assay: biochemical; format: binding
Sequence of SfurOBP2 (V5T759 entry or part of it): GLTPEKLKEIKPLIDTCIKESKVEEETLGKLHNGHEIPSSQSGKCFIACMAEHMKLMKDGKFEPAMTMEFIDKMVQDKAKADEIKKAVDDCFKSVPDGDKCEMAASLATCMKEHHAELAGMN
Procedure, shortened: as §1

[4] = target: SfurOBP3 (Sogatella furcifera, UniProt V5T818); assay: biochemical; format: binding; details: for Fluorescence competitive binding assay, fluorescence intensity: OBP3, three replicate columns
Sequence of SfurOBP3 (V5T818 entry or part of it): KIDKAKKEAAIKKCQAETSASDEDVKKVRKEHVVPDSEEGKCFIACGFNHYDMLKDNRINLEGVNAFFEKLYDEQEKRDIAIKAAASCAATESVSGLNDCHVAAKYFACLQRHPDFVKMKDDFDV
Procedure, shortened: as §1

[5] = system: S. furcifera adults; assay: Y-tube olfactometer behavioral trials; format: in vivo, Sogatella furcifera; details: odorant 50 µL/L vs hexane
Procedure, shortened: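 Single S. furcifera adults (2 days post-emergence, starved 0.5 h) chose between odorant (100 µL of 50 µL/L on filter paper) and hexane control in a glass Y-tube, charcoal-filtered humidified air 300 mL/min per arm, 25 ± 1 °C, 50% RH. Choice scored if insect passed half an arm and stayed >1 min within 10 min; 45 insects per compound, chi-squared test.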

CCCCCCCCCCC [n-hendecane]
Fluorescence competitive binding assay, fluorescence intensity ([1]; ligand concentration 2 (μM)): 8889 and 7931 and 9847
Fluorescence competitive binding assay, fluorescence intensity ([1]; ligand concentration 4 (μM)): 9154 and 8432 and 9875
Fluorescence competitive binding assay, fluorescence intensity ([1]; ligand concentration 6 (μM)): 7581 and 8720 and 8173
Fluorescence competitive binding assay, fluorescence intensity ([1]; ligand concentration 8 (μM)): 8276 and 7641 and 8381
Fluorescence competitive binding assay, fluorescence intensity ([1]; ligand concentration 10 (μM)): 7644 and 8267 and 8233
Fluorescence competitive binding assay, fluorescence intensity ([1]; ligand concentration 12 (μM)): 8969 and 10263 and 9250
Fluorescence competitive binding assay, fluorescence intensity ([1]; ligand concentration 14 (μM)): 8392 and 9042 and 10874
Fluorescence competitive binding assay, fluorescence intensity ([1]; ligand concentration 16 (μM)): 8482 and 9466 and 8778
Fluorescence competitive binding assay, fluorescence intensity ([1]; ligand concentration 18 (μM)): 11781 and 12671 and 12573
Fluorescence competitive binding assay, fluorescence intensity ([1]; ligand concentration 20 (μM)): 13259 and 11367 and 9255
IC50 ([1]; SfurOBP1, protein and 1-NPN both 2.0 µM, competitor 2-20 µM, read-out: IC50): > 20 µM
IC50 ([2]; SfurOBP11, protein and 1-NPN both 2.0 µM, competitor 2-20 µM, read-out: IC50): > 20 µM
Fluorescence intensity, fluorescence competitive binding assay, OBP11 ([2]; ligand concentration 2, replicate 1): 27436
Fluorescence intensity, fluorescence competitive binding assay, OBP11 ([2]; ligand concentration 2, replicate 2): 25403
Fluorescence intensity, fluorescence competitive binding assay, OBP11 ([2]; ligand concentration 2, replicate 3): 32188
Fluorescence intensity, fluorescence competitive binding assay, OBP11 ([2]; ligand concentration 4, replicate 1): 29413
Fluorescence intensity, fluorescence competitive binding assay, OBP11 ([2]; ligand concentration 4, replicate 2): 28026
Fluorescence intensity, fluorescence competitive binding assay, OBP11 ([2]; ligand concentration 4, replicate 3): 33638
Fluorescence intensity, fluorescence competitive binding assay, OBP11 ([2]; ligand concentration 6, replicate 1): 33021
Fluorescence intensity, fluorescence competitive binding assay, OBP11 ([2]; ligand concentration 6, replicate 2): 33682
Fluorescence intensity, fluorescence competitive binding assay, OBP11 ([2]; ligand concentration 6, replicate 3): 34343
Fluorescence intensity, fluorescence competitive binding assay, OBP11 ([2]; ligand concentration 8, replicate 1): 31948
Fluorescence intensity, fluorescence competitive binding assay, OBP11 ([2]; ligand concentration 8, replicate 2): 30771
Fluorescence intensity, fluorescence competitive binding assay, OBP11 ([2]; ligand concentration 8, replicate 3): 33124
Fluorescence intensity, fluorescence competitive binding assay, OBP11 ([2]; ligand concentration 10, replicate 1): 30756
Fluorescence intensity, fluorescence competitive binding assay, OBP11 ([2]; ligand concentration 10, replicate 2): 30287
Fluorescence intensity, fluorescence competitive binding assay, OBP11 ([2]; ligand concentration 10, replicate 3): 30522
Fluorescence intensity, fluorescence competitive binding assay, OBP11 ([2]; ligand concentration 12, replicate 1): 29262
Fluorescence intensity, fluorescence competitive binding assay, OBP11 ([2]; ligand concentration 12, replicate 2): 31182
Fluorescence intensity, fluorescence competitive binding assay, OBP11 ([2]; ligand concentration 12, replicate 3): 32197
Fluorescence intensity, fluorescence competitive binding assay, OBP11 ([2]; ligand concentration 14, replicate 1): 28697
Fluorescence intensity, fluorescence competitive binding assay, OBP11 ([2]; ligand concentration 14, replicate 2): 28336
Fluorescence intensity, fluorescence competitive binding assay, OBP11 ([2]; ligand concentration 14, replicate 3): 31391
Fluorescence intensity, fluorescence competitive binding assay, OBP11 ([2]; ligand concentration 16, replicate 1): 26235
Fluorescence intensity, fluorescence competitive binding assay, OBP11 ([2]; ligand concentration 16, replicate 2): 27774
Fluorescence intensity, fluorescence competitive binding assay, OBP11 ([2]; ligand concentration 16, replicate 3): 27525
Fluorescence intensity, fluorescence competitive binding assay, OBP11 ([2]; ligand concentration 18, replicate 1): 34849
Fluorescence intensity, fluorescence competitive binding assay, OBP11 ([2]; ligand concentration 18, replicate 2): 34941
Fluorescence intensity, fluorescence competitive binding assay, OBP11 ([2]; ligand concentration 18, replicate 3): 33114
Fluorescence intensity, fluorescence competitive binding assay, OBP11 ([2]; ligand concentration 20, replicate 1): 29304
Fluorescence intensity, fluorescence competitive binding assay, OBP11 ([2]; ligand concentration 20, replicate 2): 30167
Fluorescence intensity, fluorescence competitive binding assay, OBP11 ([2]; ligand concentration 20, replicate 3): 28561
IC50 ([3]; SfurOBP2, protein and 1-NPN both 2.0 µM, competitor 2-20 µM, read-out: IC50): > 20 µM
Fluorescence competitive binding assay, OBP2 (raw fluorescence reading) ([3]; ligand concentration 2 (unit not given), replicate column 1 of 3): 13775
Fluorescence competitive binding assay, OBP2 (raw fluorescence reading) ([3]; ligand concentration 2 (unit not given), replicate column 2 of 3): 13769
Fluorescence competitive binding assay, OBP2 (raw fluorescence reading) ([3]; ligand concentration 2 (unit not given), replicate column 3 of 3): 13734
Fluorescence competitive binding assay, OBP2 (raw fluorescence reading) ([3]; ligand concentration 4 (unit not given), replicate column 1 of 3): 13631
Fluorescence competitive binding assay, OBP2 (raw fluorescence reading) ([3]; ligand concentration 4 (unit not given), replicate column 2 of 3): 13783
Fluorescence competitive binding assay, OBP2 (raw fluorescence reading) ([3]; ligand concentration 4 (unit not given), replicate column 3 of 3): 13500
Fluorescence competitive binding assay, OBP2 (raw fluorescence reading) ([3]; ligand concentration 6 (unit not given), replicate column 1 of 3): 14480
Fluorescence competitive binding assay, OBP2 (raw fluorescence reading) ([3]; ligand concentration 6 (unit not given), replicate column 2 of 3): 14028
Fluorescence competitive binding assay, OBP2 (raw fluorescence reading) ([3]; ligand concentration 6 (unit not given), replicate column 3 of 3): 13866
Fluorescence competitive binding assay, OBP2 (raw fluorescence reading) ([3]; ligand concentration 8 (unit not given), replicate column 1 of 3): 14049
Fluorescence competitive binding assay, OBP2 (raw fluorescence reading) ([3]; ligand concentration 8 (unit not given), replicate column 2 of 3): 14101
Fluorescence competitive binding assay, OBP2 (raw fluorescence reading) ([3]; ligand concentration 8 (unit not given), replicate column 3 of 3): 13901
Fluorescence competitive binding assay, OBP2 (raw fluorescence reading) ([3]; ligand concentration 10 (unit not given), replicate column 1 of 3): 14583
Fluorescence competitive binding assay, OBP2 (raw fluorescence reading) ([3]; ligand concentration 10 (unit not given), replicate column 2 of 3): 14099
Fluorescence competitive binding assay, OBP2 (raw fluorescence reading) ([3]; ligand concentration 10 (unit not given), replicate column 3 of 3): 14077
Fluorescence competitive binding assay, OBP2 (raw fluorescence reading) ([3]; ligand concentration 12 (unit not given), replicate column 1 of 3): 12819
Fluorescence competitive binding assay, OBP2 (raw fluorescence reading) ([3]; ligand concentration 12 (unit not given), replicate column 2 of 3): 13447
Fluorescence competitive binding assay, OBP2 (raw fluorescence reading) ([3]; ligand concentration 12 (unit not given), replicate column 3 of 3): 13211
Fluorescence competitive binding assay, OBP2 (raw fluorescence reading) ([3]; ligand concentration 14 (unit not given), replicate column 1 of 3): 12583
Fluorescence competitive binding assay, OBP2 (raw fluorescence reading) ([3]; ligand concentration 14 (unit not given), replicate column 2 of 3): 13279
Fluorescence competitive binding assay, OBP2 (raw fluorescence reading) ([3]; ligand concentration 14 (unit not given), replicate column 3 of 3): 13266
Fluorescence competitive binding assay, OBP2 (raw fluorescence reading) ([3]; ligand concentration 16 (unit not given), replicate column 1 of 3): 12291
Fluorescence competitive binding assay, OBP2 (raw fluorescence reading) ([3]; ligand concentration 16 (unit not given), replicate column 2 of 3): 12273
Fluorescence competitive binding assay, OBP2 (raw fluorescence reading) ([3]; ligand concentration 16 (unit not given), replicate column 3 of 3): 12414
Fluorescence competitive binding assay, OBP2 (raw fluorescence reading) ([3]; ligand concentration 18 (unit not given), replicate column 1 of 3): 15293
Fluorescence competitive binding assay, OBP2 (raw fluorescence reading) ([3]; ligand concentration 18 (unit not given), replicate column 2 of 3): 14599
Fluorescence competitive binding assay, OBP2 (raw fluorescence reading) ([3]; ligand concentration 18 (unit not given), replicate column 3 of 3): 14178
Fluorescence competitive binding assay, OBP2 (raw fluorescence reading) ([3]; ligand concentration 20 (unit not given), replicate column 1 of 3): 14271
Fluorescence competitive binding assay, OBP2 (raw fluorescence reading) ([3]; ligand concentration 20 (unit not given), replicate column 2 of 3): 14231
Fluorescence competitive binding assay, OBP2 (raw fluorescence reading) ([3]; ligand concentration 20 (unit not given), replicate column 3 of 3): 15281
Fluorescence competitive binding assay, fluorescence intensity ([4]; ligand concentration 2): 74152 and 72365 and 72059
Fluorescence competitive binding assay, fluorescence intensity ([4]; ligand concentration 4): 77402 and 81799 and 77600
Fluorescence competitive binding assay, fluorescence intensity ([4]; ligand concentration 6): 79862 and 82180 and 72867
Fluorescence competitive binding assay, fluorescence intensity ([4]; ligand concentration 8): 73959 and 76680 and 68556
Fluorescence competitive binding assay, fluorescence intensity ([4]; ligand concentration 10): 74938 and 80983 and 75877
Fluorescence competitive binding assay, fluorescence intensity ([4]; ligand concentration 12): 71318 and 75448 and 71285
Fluorescence competitive binding assay, fluorescence intensity ([4]; ligand concentration 14): 70629 and 72724 and 74851
Fluorescence competitive binding assay, fluorescence intensity ([4]; ligand concentration 16): 63137 and 66714 and 63682
Fluorescence competitive binding assay, fluorescence intensity ([4]; ligand concentration 18): 73714 and 82385 and 76604
Fluorescence competitive binding assay, fluorescence intensity ([4]; ligand concentration 20): 75970 and 66519 and 62854
IC50 ([4]; SfurOBP3, protein and 1-NPN both 2.0 µM, competitor 2-20 µM, read-out: IC50): > 20 µM
behavioral response of S. furcifera (in words) [5]: strongly attracted
number of insects choosing hexane arm ([5]; adults): 8
number of insects choosing volatilies arm ([5]; adults): 18
number of insects failed (no choice) ([5]; adults): 14
